For one cell line, relative viability results are on record in the supplement of paper PMC10307832.

Assay in all cases: relative viability (nuclei count vs DMSO), 5 days (fraction); higher = more cells survive
Compound in the assay “XMD14-99 + Navitoclax”: CN1CCN(CC1)C2=CC(=C(C=C2)NC3=NC(=C(S3)C(=O)C4=C(C=CC=C4Cl)Cl)N)OC [XMD14-99] + CC1(C)CCC(c2ccc(Cl)cc2)=C(CN2CCN(c3ccc(C(=O)NS(=O)(=O)c4ccc(N[C@H](CCN5CCOCC5)CSc5ccccc5)c(S(=O)(=O)C(F)(F)F)c4)cc3)CC2)C1 [Navitoclax] (partner 0.5 µM)
The method in brief: (§1)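 For relative viability, nuclei counts in treated wells were divided by those in vehicle wells. Lung cancer cell lines had been pin-tool dosed in 1536-well plates the day after seeding and cultured for 5 days, then fixed and stained in one step (final 0.05% Triton X-100, 1% formaldehyde, 1 ug/ml Hoechst) and imaged at 4×. Doses were one drug alone or a fixed anchor-drug dose plus five library-drug doses (not always all listed) in √10 steps, and values are duplicate-plate medians.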

Compound in the assay “XMD14-99 + Pictilisib”: CN1CCN(CC1)C2=CC(=C(C=C2)NC3=NC(=C(S3)C(=O)C4=C(C=CC=C4Cl)Cl)N)OC [XMD14-99] + CS(=O)(=O)N1CCN(Cc2cc3nc(-c4cccc5[nH]ncc45)nc(N4CCOCC4)c3s2)CC1 [Pictilisib] (partner 1 µM)
The method in brief:
as §1

Compound in the assay “XMD14-99 + Olaparib”: CN1CCN(CC1)C2=CC(=C(C=C2)NC3=NC(=C(S3)C(=O)C4=C(C=CC=C4Cl)Cl)N)OC [XMD14-99] + O=C(c1cc(Cc2n[nH]c(=O)c3ccccc23)ccc1F)N1CCN(C(=O)C2CC2)CC1 [Olaparib] (partner 8 µM)
The method in brief:
as §1

Compound in the assay “AZD1208 + Dasatinib”: N[C@@H]1CCCN(c2c(/C=C3\SC(=O)NC3=O)cccc2-c2ccccc2)C1 [AZD1208] + Cc1nc(Nc2ncc(C(=O)Nc3c(C)cccc3Cl)s2)cc(N2CCN(CCO)CC2)n1 [Dasatinib] (partner 0.075 µM)
The method in brief: as §1

On to UMC-11, for which the relative viability with XMD14-99 + Navitoclax (first compound 0.08 µM) was 0.308; in the assay with XMD14-99 + Navitoclax (first compound 0.8 µM), 0.33; with XMD14-99 + Navitoclax (first compound 2.53 µM), 0.343; in the assay with XMD14-99 + Navitoclax (first compound 8 µM) it was 0.317; with XMD14-99 + Pictilisib (first compound 0.08 µM), 0.802; with XMD14-99 + Pictilisib (first compound 0.8 µM), 0.856. In addition, the relative viability in the assay with XMD14-99 + Pictilisib (first compound 2.53 µM) amounted to 0.795; in the assay with XMD14-99 + Pictilisib (first compound 8 µM), 0.663; with XMD14-99 + Olaparib (first compound 0.08 µM), 0.363; with XMD14-99 + Olaparib (first compound 0.8 µM), 0.313; in the assay with XMD14-99 + Olaparib (first compound 2.53 µM), 0.345; in the assay with XMD14-99 + Olaparib (first compound 8 µM), 0.288. Further, the relative viability turned out to be 0.462 in the assay with AZD1208 + Dasatinib (first compound 0.08 µM); 0.469 with AZD1208 + Dasatinib (first compound 0.253 µM); 0.446 with AZD1208 + Dasatinib (first compound 0.8 µM); 0.483 in the assay with AZD1208 + Dasatinib (first compound 2.53 µM); 0.41 with AZD1208 + Dasatinib (first compound 8 µM).
